This experiment deals with Urease [D459Y,K653P] (Canavalia ensiformis, UniProt P07374, D459Y/K653P). The experiment can be described thus: Urease Inhibition Assay. Conditions: pH 8.2. Here is the method:
The mixture of this enzyme inhibition assay was composed of 10 µL of enzyme (5 U/mL) and 10 µL of each test compound in the series (3a-3s) in 40 µL buffer (100 mM urea, 0.01 M K2HPO4, 1 mM EDTA and 0.01 M […], pH 8.2). The resulting mixture in for each test compound was incubated for 30 min at 37 °C in 96-well plates. Subsequently, the phenol reagents (40 µL) (1%, w/v phenol and 0.005%, w/v sodium nitroprusside) and alkali reagent (40 µL) (0.5%, w/v NaOH and 0.1% active chloride NaOCl) were dropped down into each well. The absorbance of the colored resultant mixtures was measured after 30 min at 625 nm.
Chain of Urease [D459Y,K653P] (P07374 whole entry D459Y/K653P): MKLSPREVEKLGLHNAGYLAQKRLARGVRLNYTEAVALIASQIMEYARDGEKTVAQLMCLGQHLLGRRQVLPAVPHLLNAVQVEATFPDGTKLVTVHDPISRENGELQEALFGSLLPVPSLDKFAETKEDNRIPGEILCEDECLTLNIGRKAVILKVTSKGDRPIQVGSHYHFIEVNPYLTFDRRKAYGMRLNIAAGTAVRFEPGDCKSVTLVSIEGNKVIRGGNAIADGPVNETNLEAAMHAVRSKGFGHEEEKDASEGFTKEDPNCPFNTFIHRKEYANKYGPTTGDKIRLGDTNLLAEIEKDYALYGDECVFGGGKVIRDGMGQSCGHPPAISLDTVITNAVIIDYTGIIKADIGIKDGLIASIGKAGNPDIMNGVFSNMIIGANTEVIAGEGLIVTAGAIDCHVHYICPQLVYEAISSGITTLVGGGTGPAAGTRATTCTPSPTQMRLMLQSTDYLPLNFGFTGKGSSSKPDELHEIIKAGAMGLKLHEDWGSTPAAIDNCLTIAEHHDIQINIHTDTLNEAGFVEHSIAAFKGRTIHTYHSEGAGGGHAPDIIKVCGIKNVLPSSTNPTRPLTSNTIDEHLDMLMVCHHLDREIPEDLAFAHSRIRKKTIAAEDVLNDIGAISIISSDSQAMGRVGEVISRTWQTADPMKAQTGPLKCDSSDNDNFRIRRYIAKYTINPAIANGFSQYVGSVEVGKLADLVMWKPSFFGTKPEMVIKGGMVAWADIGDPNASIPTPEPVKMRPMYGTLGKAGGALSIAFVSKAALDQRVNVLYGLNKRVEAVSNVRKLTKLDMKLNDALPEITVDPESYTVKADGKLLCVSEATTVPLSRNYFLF
Usually IC50 stands for the concentration at which inhibition is half-maximal. Read a low IC50 as higher potency. As to `CC(=NNC(=S)Nc1ccc(F)cc1F)c1cc2ccccc2o1` [2-(1-(Benzofuran-2-yl)ethylidene)-N-(2,4-difluorophenyl)hydrazinecarbothioamide (3h)], it took 0.387 µM to reach half-maximal inhibition (IC50).

In turn, `CC(=NNC(=S)Nc1ccccc1)c1cc2ccccc2o1` [2-(1-(Benzofuran-2-yl)ethylidene)-N-phenylhydrazinecarbothioamide (3a)] displayed an IC50 of 0.089 µM.

`CC(=NNC(=S)Nc1cc(Cl)ccc1Cl)c1cc2ccccc2o1` [2-(1-(Benzofuran-2-yl)ethylidene)-N-(2,5-dichlorophenyl)-hydrazinecarbothioamide (3d)]: the IC50 is 2.01 µM.

For `COc1ccc(NC(=S)NN=C(C)c2cc3ccccc3o2)cc1` [2-(1-(Benzofuran-2-yl)ethylidene)-N-(4-methoxyphenyl)hydrazinecarbothioamide (3m)], inhibition was half-maximal at 2.61 µM (IC50). This IC50 and that of the compound before are within 1.5-fold of each other.

`CC(=NNC(=S)Nc1ccc(F)cc1)c1cc2ccccc2o1` [2-(1-(Benzofuran-2-yl)ethylidene)-N-(4-fluorophenyl)hydrazinecarbothioamide (3e)]: the IC50 is 0.177 µM.

Take `CC(=NNC(=S)Nc1cccc(Cl)c1)c1cc2ccccc2o1` [2-(1-(Benzofuran-2-yl)ethylidene)-N-(3-chlorophenyl)hydrazinecarbothioamide (3b)]: half-maximal inhibition (IC50) was put at 1.13 µM.

On to `COc1cccc(NC(=S)NN=C(C)c2cc3ccccc3o2)c1` [2-(1-(Benzofuran-2-yl)ethylidene)-N-(3-methoxyphenyl)hydrazinecarbothioamide (3n)], for which the IC50 turned out to be 0.102 µM.

In the case of `CC(=NNC(=S)Nc1cccc(F)c1)c1cc2ccccc2o1` [2-(1-(Benzofuran-2-yl)ethylidene)-N-(3-fluorophenyl)hydrazinecarbothioamide (3f)], the half-inhibitory concentration (IC50) was 1.15 µM.

`CC(=NNC(=S)Nc1cccc(C)c1)c1cc2ccccc2o1` [1-[1-(2-benzofuranyl)ethylideneamino]-3-(3-methylphenyl)thiourea] displayed an IC50 of 0.283 µM.

`CC(=NNC(=S)Nc1cccc(Br)c1)c1cc2ccccc2o1` [2-(1-(Benzofuran-2-yl)ethylidene)-N-(3-bromophenyl)hydrazinecarbothioamide (3i)]: 10.9 µM corresponded to half-maximal inhibition (IC50). This IC50 lies about 39-fold higher than the previous one.

In turn, `CC(=NNC(=S)Nc1cccc([N+](=O)[O-])c1)c1cc2ccccc2o1` [2-(1-(Benzofuran-2-yl)ethylidene)-N-(3-nitrophenyl)hydrazinecarbothioamide (3k)] showed an IC50 of 0.077 µM.

As for `CC(=NNC(=S)Nc1ccccc1C)c1cc2ccccc2o1` [2-(1-(Benzofuran-2-yl)ethylidene)-N-(2-methylphenyl)hydrazinecarbothioamide (3p)], the 50% inhibitory concentration (IC50) stood at 0.314 µM.

The compound `COc1ccccc1NC(=S)NN=C(C)c1cc2ccccc2o1` [2-(1-(Benzofuran-2-yl)ethylidene)-N-(2-methoxyphenyl)hydrazinecarbothioamide (3o)] registered an IC50 of 24 µM.

`CC(=NNC(=S)Nc1ccc(C)cc1)c1cc2ccccc2o1` [SMR000377934] displayed an IC50 of 3.47 µM.

Compound `CC(=NNC(=S)Nc1ccccc1F)c1cc2ccccc2o1` [2-(1-(Benzofuran-2-yl)ethylidene)-N-(2-fluorophenyl)hydrazinecarbothioamide (3g)] had a 50% inhibitory concentration (IC50) of 0.321 µM.

With `CC(=NNC(=S)Nc1ccc(Cl)cc1Cl)c1cc2ccccc2o1` [2-(1-(Benzofuran-2-yl)ethylidene)-N-(2,4-dichlorophenyl)-hydrazinecarbothioamide (3c)], 0.592 µM corresponded to half-maximal inhibition (IC50). This IC50 lies about 1.8-fold higher than the previous one.

`CC(=NNC(=S)Nc1ccc([N+](=O)[O-])cc1)c1cc2ccccc2o1` [2-(1-(Benzofuran-2-yl)ethylidene)-N-(4-nitrophenyl)hydrazinecarbothioamide (3l)] had a half-inhibitory concentration (IC50) of 0.181 µM.

`C=CCNC(=S)NN=C(C)c1cc2ccccc2o1` [N-Allyl-2-(1-(benzofuran-2-yl)ethylidene)hydrazinecarbothioamide (3s)] gave a half-maximal inhibitory concentration (IC50) of 0.694 µM.

In the case of `CC(=NNC(=S)Nc1ccccc1Br)c1cc2ccccc2o1` [2-(1-(Benzofuran-2-yl)ethylidene)-N-(2-bromophenyl)hydrazinecarbothioamide (3j)], the IC50 was found to be 0.564 µM.

Values taken from BindingDB's records for doi:10.1016/j.bioorg.2015.06.004 (University of Karachi, 2015).
